From the supplement of paper PMC11208160
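Note: IS621 bridge recombinase in Escherichia coli cells against a fixed T5 target plasmid.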

Assay: recombinant UMI read abundance after kanamycin selection (control-corrected) (log10(CPM+1)); higher = more efficient recombination; extreme values may be limits of the assay; sequences stand for … in AGTGCAGAGAAAATCGGCCAGTTTTCTCTGCCTGCAGTCCGCATGCCGTGGGACCCCTTGGGTTCTAACCTGTTGCCTAGATTTATGCAGCGGACTGCCTTTCTCCCAAAGTGATAAACCGG…AGGTTGGTTTCACT; site = the 11-nt donor
Outline: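 In a pooled Escherichia coli screen for the IS621 bridge recombinase, donor and donor-binding-loop pairs were each placed with a 12-nt UMI on a plasmid bearing a promoterless kanamycin gene. This library was co-electroporated with a target plasmid encoding a fixed target and T7-inducible recombinase, and cells were plated either on IPTG (0.07 mM) plus kanamycin or without selection, in two replicates each. Recombinant UMIs were PCR-amplified across the donor–target junction and sequenced, and counts were converted to CPM, averaged over replicates, scaled by control-derived factors and reported as log10(CPM+1).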
For “ATAAAGGCATGGACCGGTTTTCCCGGTAATCCGTATTTGCT (site AAAAAGGCTAG)”, the “recombinant UMI read abundance (log10)” value was 0.238. With “ATAAAGGCATGGACCGGTTTTCCCGGTAATCCGTATTTGCT (site ACAAAGGCTAG)” the “recombinant UMI read abundance (log10)” value was 1.63. For “ATAAAGGCATGGACCGGTTTTCCCGGTAATCCGTATTTGCT (site AGAAAGGCTAG)”, the “recombinant UMI read abundance (log10)” value was 0.349. With “ATAAAGGCATGGACCGGTTTTCCCGGTAATCCGTATTTGCT (site ATAAAGGCTAG)” the “recombinant UMI read abundance (log10)” value was 2.75. In the case of “ATAACGCCATGGACCGGTTTTCCCGGTAATCCGTATTTGAG (site ATAACGCCTCT)”, the “recombinant UMI read abundance (log10)” value is reported as 0.00694. For “ATAACGCCATGGACCGGTTTTCCCGGTAATCCGTATTTGTC (site ATAACGCCTGA)”, the “recombinant UMI read abundance (log10)” value was 1.58. For “ATAAGGCCATGGACCGGTTTTCCCGGTAATCCGTATTTGAA (site ATAAGGCCTAT)”, the “recombinant UMI read abundance (log10)” value was 0.00331. In the case of “ATAAGGCCATGGACCGGTTTTCCCGGTAATCCGTATTTGAA (site ATAAGGCCTCT)”, the “recombinant UMI read abundance (log10)” value is reported as 0.0201. For “ATAAGGCCATGGACCGGTTTTCCCGGTAATCCGTATTTGAA (site ATAAGGCCTGT)”, the “recombinant UMI read abundance (log10)” value was 0. With “ATAAGGCCATGGACCGGTTTTCCCGGTAATCCGTATTTGAA (site ATAAGGCCTTT)” the “recombinant UMI read abundance (log10)” value was 0.404. With “ATAAGGCCATGGACCGGTTTTCCCGGTAATCCGTATTTGAG (site ATAAGGCCTAT)” the “recombinant UMI read abundance (log10)” value was 0.00358. With “ATAAGGCCATGGACCGGTTTTCCCGGTAATCCGTATTTGAG (site ATAAGGCCTCT)” the “recombinant UMI read abundance (log10)” value was 0.325. In the case of “ATAAGGCCATGGACCGGTTTTCCCGGTAATCCGTATTTGAG (site ATAAGGCCTGT)”, the “recombinant UMI read abundance (log10)” value is reported as 0. For “ATAAGGCCATGGACCGGTTTTCCCGGTAATCCGTATTTGAG (site ATAAGGCCTTT)”, the “recombinant UMI read abundance (log10)” value was 0.025. In the case of “ATAAGGGCATGGACCGGTTTTCCCGGTAATCCGTATTTGAC (site ATAAGGACTGT)”, the “recombinant UMI read abundance (log10)” value is reported as 2.61. In the case of “ATAAGGGCATGGACCGGTTTTCCCGGTAATCCGTATTTGAC (site ATAAGGCCTGT)”, the “recombinant UMI read abundance (log10)” value is reported as 0.00415. For “ATAAGGGCATGGACCGGTTTTCCCGGTAATCCGTATTTGAC (site ATAAGGGCTGT)”, the “recombinant UMI read abundance (log10)” value was 2.79. In the case of “ATAAGGGCATGGACCGGTTTTCCCGGTAATCCGTATTTGAC (site ATAAGGTCTGT)”, the “recombinant UMI read abundance (log10)” value is reported as 2.53. For “ATAAGGTCATGGACCGGTTTTCCCGGTAATCCGTATTTGAC (site ATAAGGACTGT)”, the “recombinant UMI read abundance (log10)” value was 1.91. With “ATAAGGTCATGGACCGGTTTTCCCGGTAATCCGTATTTGAC (site ATAAGGCCTGT)” the “recombinant UMI read abundance (log10)” value was 1.04. In the case of “ATAAGGTCATGGACCGGTTTTCCCGGTAATCCGTATTTGAC (site ATAAGGGCTGT)”, the “recombinant UMI read abundance (log10)” value is reported as 0.526. With “ATAAGGTCATGGACCGGTTTTCCCGGTAATCCGTATTTGAC (site ATAAGGTCTGT)” the “recombinant UMI read abundance (log10)” value was 3.4. With “ATACACACATGGACCGGTTTTCCCGGTAATCCGTATTTGGG (site ATACACACTCC)” the “recombinant UMI read abundance (log10)” value was 0.537. In the case of “ATACAGCCATGGACCGGTTTTCCCGGTAATCCGTATTTGGT (site ATACAGCCTAC)”, the “recombinant UMI read abundance (log10)” value is reported as 0.00946. In the case of “ATACATCCATGGACCGGTTTTCCCGGTAATCCGTATTTGAC (site AAACATCCTGT)”, the “recombinant UMI read abundance (log10)” value is reported as 0. With “ATACATCCATGGACCGGTTTTCCCGGTAATCCGTATTTGAC (site ACACATCCTGT)” the “recombinant UMI read abundance (log10)” value was 0. With “ATACATCCATGGACCGGTTTTCCCGGTAATCCGTATTTGAC (site AGACATCCTGT)” the “recombinant UMI read abundance (log10)” value was 0. With “ATACATCCATGGACCGGTTTTCCCGGTAATCCGTATTTGAC (site ATACATCCTGT)” the “recombinant UMI read abundance (log10)” value was 1.12. With “ATACGAACATGGACCGGTTTTCCCGGTAATCCGTATTTGTC (site AAACGAACTGA)” the “recombinant UMI read abundance (log10)” value was 0. With “ATACGAACATGGACCGGTTTTCCCGGTAATCCGTATTTGTC (site ACACGAACTGA)” the “recombinant UMI read abundance (log10)” value was 0. With “ATACGAACATGGACCGGTTTTCCCGGTAATCCGTATTTGTC (site AGACGAACTGA)” the “recombinant UMI read abundance (log10)” value was 0. In the case of “ATACGAACATGGACCGGTTTTCCCGGTAATCCGTATTTGTC (site ATACGAACTGA)”, the “recombinant UMI read abundance (log10)” value is reported as 2.83.
